18 compounds from PubChem BioAssay (NCI) can be followed below.

SMILES strings stand for the structures. “And” between values parts separate entries of the source, which are not always exact repeats. Equal entries are not always repeated.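 Where inhibition never reached the appropriate level, the endpoint shown equals the highest concentration tested. Otherwise, values were interpolated linearly from a five-concentration, 48-hour dose response in 96-well plates. The concentration for 50% growth inhibition is given as GI50. TGI: concentration producing complete growth inhibition.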

In the first assay the test system is A549 NSCLC. As to the kind of experiment: NCI-60 cell line screen, 48 h.
`O=C(Cl)C1=C(c2ccccc2)C1c1ccccc1` (stereo not given) registered a TGI above 100 µM.

For `c1cnn2ncc(-c3ccnc(Nc4ccc5c(c4)OCCO5)n3)c2c1`, the GI50 was 0.0753 µM and the TGI is 3.07 µM.

With `Cc1ccc(-n2nc(C(C)(C)C)cc2NC(=O)NCc2cc(F)ccc2Oc2ccc3c(cnn3CCO)c2)cc1`, the GI50 was > 10 µM and 11.7 µM; the TGI was above 100 µM.

`COc1ccc2[nH]c(-c3ccc(O)cc3)cc(=O)c2c1`: the TGI is above 59.4 µM.

Compound `Cc1cc(C)n(C2=NS(=O)(=O)c3ccccc3N2C)n1` returned a TGI above 100 µM.

With `COc1ccc2c(NCCCCCCNc3c4ccccc4nc4cc(OC)ccc34)c3ccccc3nc2c1`, the TGI stood at 11.9 µM.

`COc1cccc2c(=O)c3c(sc12)c(NCCCNCCO)nc1ccccc13`: the GI50 is 1.42 µM and the TGI was 3.11 µM.

Turning to `O=C1c2cccc3cccc(c23)C(=O)N1O`, the TGI is above 100 µM.

Turning to `O=C(O)c1ccccc1C(=O)c1ccc2c(c1)Cc1ccccc1-2`, the TGI is above 100 µM.

As for `CC(=Nc1ccc(S(N)(=O)=O)cc1)c1c(O)[nH]c2ccccc12`, the GI50 is above 25 µM and the TGI is above 25 µM.

On to `CCn1c(-c2nonc2N)nc2ccncc21`, for which the GI50 is above 25 µM and the TGI is above 25 µM.

In the case of `CC(C)[O-].CC(C)[O-].CN(CCN(C)Cc1cc(F)cc(F)c1[O-])Cc1cc(F)cc(F)c1[O-].[Ti+4]`, the GI50 was 0.892 µM and the TGI amounted to 7.95 µM.

On to `Clc1ccc2c(c1)N(c1ncnc3ccc(-c4cnc5[nH]ncc5c4)cc13)CC2`, for which the GI50 was 0.33 µM and the TGI was above 100 µM.

With `Fc1ccc2nc(-c3cc(-c4ccc5c(c4)OCO5)n[nH]3)[nH]c2c1`, the GI50 was 2.51 µM and the TGI was determined as 13.8 µM.

`CCOC(=O)N1CCN(CCCCCOc2ccccc2C2CCCCC2)CC1`: the GI50 is 5.01 µM and the TGI was 17.3 µM.

For `CCCCCCCCCCCCCC[n+]1cccc(C(N)=O)c1`, the GI50 is 4.08 µM and the TGI stood at 18.4 µM.

As to `OCc1ccc(N2CCOCC2)cc1Cl`, the GI50 is above 100 µM and the TGI is above 100 µM.

For a further assay, the system named is DU-145 prostate. Kind of assay: NCI-60 cell line screen, 48 h.
Consider `O=C(Cl)C1=C(c2ccccc2)C1c1ccccc1` (stereo not given), for which the TGI is above 100 µM.

As to `c1cnn2ncc(-c3ccnc(Nc4ccc5c(c4)OCCO5)n3)c2c1`, the GI50 was 0.0844 µM and the TGI is 1.45 µM.

`Cc1ccc(-n2nc(C(C)(C)C)cc2NC(=O)NCc2cc(F)ccc2Oc2ccc3c(cnn3CCO)c2)cc1`: the GI50 was > 10 µM and 7.2 µM; the TGI was above 100 µM.

Turning to `COc1ccc2[nH]c(-c3ccc(O)cc3)cc(=O)c2c1`, the TGI is above 100 µM.

In turn, `Cc1cc(C)n(C2=NS(=O)(=O)c3ccccc3N2C)n1` returned a TGI above 100 µM.

Take `COc1ccc2c(NCCCCCCNc3c4ccccc4nc4cc(OC)ccc34)c3ccccc3nc2c1`: the TGI was 1.47 µM.

On to `COc1cccc2c(=O)c3c(sc12)c(NCCCNCCO)nc1ccccc13`, for which the GI50 is 1.65 µM and the TGI stood at 3.11 µM.

The compound `O=C1c2cccc3cccc(c23)C(=O)N1O` displayed a TGI above 100 µM.

`O=C(O)c1ccccc1C(=O)c1ccc2c(c1)Cc1ccccc1-2` showed a TGI above 100 µM.

Take `CC(=Nc1ccc(S(N)(=O)=O)cc1)c1c(O)[nH]c2ccccc12`: the GI50 is above 25 µM and the TGI was above 25 µM.

On to `CCn1c(-c2nonc2N)nc2ccncc21`, for which the GI50 is above 25 µM and the TGI is above 25 µM.

For `CC(C)[O-].CC(C)[O-].CN(CCN(C)Cc1cc(F)cc(F)c1[O-])Cc1cc(F)cc(F)c1[O-].[Ti+4]`, the GI50 is 1.47 µM and the TGI was 7.06 µM.

Regarding `Clc1ccc2c(c1)N(c1ncnc3ccc(-c4cnc5[nH]ncc5c4)cc13)CC2`, the GI50 was 0.351 µM and the TGI is above 100 µM.

Turning to `Fc1ccc2nc(-c3cc(-c4ccc5c(c4)OCO5)n[nH]3)[nH]c2c1`, the GI50 was 5.84 µM and the TGI was above 53.1 µM.

With `COC(=O)c1ccc2c(c1)C(=O)c1c-2n(CCCN=[N+]=[N-])c(=O)c2cc([N+](=O)[O-])ccc12`, the GI50 was 70.9 µM and the TGI was above 100 µM.

`CCOC(=O)N1CCN(CCCCCOc2ccccc2C2CCCCC2)CC1`: the GI50 was 14.4 µM and the TGI is 32.3 µM.

For `CCCCCCCCCCCCCC[n+]1cccc(C(N)=O)c1`, the GI50 was 3.3 µM and the TGI stood at 11.6 µM.

With `OCc1ccc(N2CCOCC2)cc1Cl`, the GI50 was above 100 µM and the TGI is above 100 µM.

The test system of the next assay is SK-MEL-2 melanoma. As to the kind of experiment: NCI-60 cell line screen, 48 h.
Compound `O=C(Cl)C1=C(c2ccccc2)C1c1ccccc1` (stereo not given) displayed a TGI above 100 µM.

On to `c1cnn2ncc(-c3ccnc(Nc4ccc5c(c4)OCCO5)n3)c2c1`, for which the GI50 was 0.0483 µM and the TGI is 0.121 µM.

Consider `Cc1ccc(-n2nc(C(C)(C)C)cc2NC(=O)NCc2cc(F)ccc2Oc2ccc3c(cnn3CCO)c2)cc1`, for which the GI50 was 2.98 µM and 4.42 µM; the TGI is > 10 µM and 13 µM.

`Cc1cc(C)n(C2=NS(=O)(=O)c3ccccc3N2C)n1` registered a TGI above 100 µM.

For the compound `COc1ccc2c(NCCCCCCNc3c4ccccc4nc4cc(OC)ccc34)c3ccccc3nc2c1`, the TGI amounted to 1.67 µM.

In the case of `COc1cccc2c(=O)c3c(sc12)c(NCCCNCCO)nc1ccccc13`, the GI50 was 1.83 µM and the TGI turned out to be 3.74 µM.

Consider `O=C1c2cccc3cccc(c23)C(=O)N1O`, for which the TGI is above 100 µM.

In turn, `O=C(O)c1ccccc1C(=O)c1ccc2c(c1)Cc1ccccc1-2` returned a TGI above 100 µM.

In the case of `CC(=Nc1ccc(S(N)(=O)=O)cc1)c1c(O)[nH]c2ccccc12`, the GI50 is above 25 µM and the TGI is above 25 µM.

As to `CCn1c(-c2nonc2N)nc2ccncc21`, the GI50 was above 25 µM and the TGI is above 25 µM.

For the compound `CC(C)[O-].CC(C)[O-].CN(CCN(C)Cc1cc(F)cc(F)c1[O-])Cc1cc(F)cc(F)c1[O-].[Ti+4]`, the GI50 was 1.52 µM and the TGI is 4.95 µM.

Take `Clc1ccc2c(c1)N(c1ncnc3ccc(-c4cnc5[nH]ncc5c4)cc13)CC2`: the GI50 is 7 µM and the TGI is above 100 µM.

For `Fc1ccc2nc(-c3cc(-c4ccc5c(c4)OCO5)n[nH]3)[nH]c2c1`, the GI50 was 2.87 µM and the TGI was determined as 17.1 µM.

In the case of `COC(=O)c1ccc2c(c1)C(=O)c1c-2n(CCCN=[N+]=[N-])c(=O)c2cc([N+](=O)[O-])ccc12`, the GI50 was 27 µM and the TGI stood at 82.5 µM.

As to `CCCCCCCCCCCCCC[n+]1cccc(C(N)=O)c1`, the GI50 is 2.13 µM and the TGI was 4.69 µM.

Regarding `OCc1ccc(N2CCOCC2)cc1Cl`, the GI50 was above 100 µM and the TGI was above 100 µM.

The subject of another assay is NCI-H23 lung. As to the kind of experiment: NCI-60 cell line screen, 48 h.
On to `O=C(Cl)C1=C(c2ccccc2)C1c1ccccc1` (stereo not given), for which the TGI was above 100 µM.

Turning to `c1cnn2ncc(-c3ccnc(Nc4ccc5c(c4)OCCO5)n3)c2c1`, the GI50 is 0.0692 µM and the TGI was determined as 0.286 µM.

Turning to `Cc1ccc(-n2nc(C(C)(C)C)cc2NC(=O)NCc2cc(F)ccc2Oc2ccc3c(cnn3CCO)c2)cc1`, the GI50 is 5.6 µM and 6.17 µM; the TGI was above 85.3 µM.

Compound `COc1ccc2[nH]c(-c3ccc(O)cc3)cc(=O)c2c1` gave a TGI of 6.38 µM.

`Cc1cc(C)n(C2=NS(=O)(=O)c3ccccc3N2C)n1` came in with a TGI above 100 µM.

As for `COc1ccc2c(NCCCCCCNc3c4ccccc4nc4cc(OC)ccc34)c3ccccc3nc2c1`, the TGI was 0.819 µM.

For the compound `COc1cccc2c(=O)c3c(sc12)c(NCCCNCCO)nc1ccccc13`, the GI50 is 1.64 µM and the TGI is 3.27 µM.

Consider `O=C1c2cccc3cccc(c23)C(=O)N1O`, for which the TGI is above 100 µM.

`O=C(O)c1ccccc1C(=O)c1ccc2c(c1)Cc1ccccc1-2`: the TGI was above 100 µM.

For the compound `CC(=Nc1ccc(S(N)(=O)=O)cc1)c1c(O)[nH]c2ccccc12`, the GI50 was above 25 µM and the TGI was above 25 µM.

With `CCn1c(-c2nonc2N)nc2ccncc21`, the GI50 is above 25 µM and the TGI is above 25 µM.

`CC(C)[O-].CC(C)[O-].CN(CCN(C)Cc1cc(F)cc(F)c1[O-])Cc1cc(F)cc(F)c1[O-].[Ti+4]`: the GI50 is 0.706 µM and the TGI was determined as 2.72 µM.

On to `Clc1ccc2c(c1)N(c1ncnc3ccc(-c4cnc5[nH]ncc5c4)cc13)CC2`, for which the GI50 was 2.68 µM and the TGI was above 100 µM.

Take `Fc1ccc2nc(-c3cc(-c4ccc5c(c4)OCO5)n[nH]3)[nH]c2c1`: the GI50 was 6.58 µM and the TGI is above 93.8 µM.

In the case of `COC(=O)c1ccc2c(c1)C(=O)c1c-2n(CCCN=[N+]=[N-])c(=O)c2cc([N+](=O)[O-])ccc12`, the GI50 was 60 µM and the TGI was above 100 µM.

For `CCOC(=O)N1CCN(CCCCCOc2ccccc2C2CCCCC2)CC1`, the GI50 was 3.12 µM and the TGI came out at 5.93 µM.

In the case of `CCCCCCCCCCCCCC[n+]1cccc(C(N)=O)c1`, the GI50 is 2.28 µM and the TGI came to 13.6 µM.

For `OCc1ccc(N2CCOCC2)cc1Cl`, the GI50 is above 100 µM and the TGI is above 100 µM.

The next assay deals with M14 melanoma. Kind of assay: NCI-60 cell line screen, 48 h.
The compound `O=C(Cl)C1=C(c2ccccc2)C1c1ccccc1` (stereo not given) registered a TGI above 100 µM.

For `c1cnn2ncc(-c3ccnc(Nc4ccc5c(c4)OCCO5)n3)c2c1`, the GI50 was 0.0699 µM and the TGI was 0.221 µM.

Consider `Cc1ccc(-n2nc(C(C)(C)C)cc2NC(=O)NCc2cc(F)ccc2Oc2ccc3c(cnn3CCO)c2)cc1`, for which the GI50 was 0.649 µM and 1.31 µM; the TGI is above 28.5 µM.

The compound `COc1ccc2[nH]c(-c3ccc(O)cc3)cc(=O)c2c1` displayed a TGI of 82.1 µM.

Compound `Cc1cc(C)n(C2=NS(=O)(=O)c3ccccc3N2C)n1` had a TGI above 100 µM.

Turning to `COc1ccc2c(NCCCCCCNc3c4ccccc4nc4cc(OC)ccc34)c3ccccc3nc2c1`, the TGI was found to be 1.23 µM.

For the compound `COc1cccc2c(=O)c3c(sc12)c(NCCCNCCO)nc1ccccc13`, the GI50 was 1.7 µM and the TGI was determined as 3.22 µM.

`O=C1c2cccc3cccc(c23)C(=O)N1O` had a TGI above 100 µM.

Regarding `O=C(O)c1ccccc1C(=O)c1ccc2c(c1)Cc1ccccc1-2`, the TGI was above 100 µM.

With `CC(=Nc1ccc(S(N)(=O)=O)cc1)c1c(O)[nH]c2ccccc12`, the GI50 is above 25 µM and the TGI was above 25 µM.

Consider `CCn1c(-c2nonc2N)nc2ccncc21`, for which the GI50 is above 25 µM and the TGI was above 25 µM.

Take `CC(C)[O-].CC(C)[O-].CN(CCN(C)Cc1cc(F)cc(F)c1[O-])Cc1cc(F)cc(F)c1[O-].[Ti+4]`: the GI50 is 0.638 µM and the TGI is 2.3 µM.

Consider `Clc1ccc2c(c1)N(c1ncnc3ccc(-c4cnc5[nH]ncc5c4)cc13)CC2`, for which the GI50 is 0.869 µM and the TGI was above 100 µM.

Turning to `Fc1ccc2nc(-c3cc(-c4ccc5c(c4)OCO5)n[nH]3)[nH]c2c1`, the GI50 is 2.78 µM and the TGI is above 32.5 µM.

On to `COC(=O)c1ccc2c(c1)C(=O)c1c-2n(CCCN=[N+]=[N-])c(=O)c2cc([N+](=O)[O-])ccc12`, for which the GI50 was above 100 µM and the TGI was above 100 µM.

On to `CCOC(=O)N1CCN(CCCCCOc2ccccc2C2CCCCC2)CC1`, for which the GI50 is 2.98 µM and the TGI came to 11 µM.

For `CCCCCCCCCCCCCC[n+]1cccc(C(N)=O)c1`, the GI50 was 1.58 µM and the TGI turned out to be 3.6 µM.

`OCc1ccc(N2CCOCC2)cc1Cl`: the GI50 is above 100 µM and the TGI is above 100 µM.
